Experiment: xn = mol fraction of the nth substance listed
Settings: 298.15 K, 101 kPa

CC(=O)[O-].CC[NH2+]CC + O
Settings | electrical conductivity [S/m] | viscosity [mPa·s]
x1 = 0.0079 | 1.4 | –
x1 = 0.0285 | 2.35 | –
x1 = 0.0365 | 2.46 | –
x1 = 0.0444 | 2.49 | –
x1 = 0.0602 | 2.47 | –
x1 = 0.0777 | 2.33 | –
x1 = 0.098 | – | 5.81
x1 = 0.298 | – | 26.8
x1 = 0.2995 | 0.965 | –
x1 = 0.3994 | 0.669 | –
x1 = 0.403 | – | 40.7
x1 = 0.4992 | 0.525 | –
x1 = 0.501 | – | 48.1
x1 = 0.597 | – | 53.1
x1 = 0.599 | 0.407 | –
x1 = 0.662 | – | 54.6
x1 = 0.794 | 0.308 | –
x1 = 0.805 | – | 55.7
x1 = 0.8986 | 0.282 | –
x2 = 0.0048 | 0.262 | –
